From US9382226B2, “Aldosterone synthase inhibitors” (Merck Sharp & Dohme Corp., priority 2010, dated 2016)

How the values were obtained:
human CYP11B2 = target: T1, human CYP11B2 (Homo sapiens, UniProt P19099); assay: V79-Human-CYP11B2 cell assay (aldosterone formation, HTRF); format: cell-based; conditions: V79 cells stably expressing human CYP11B2; substrate 125 nM 11-deoxycorticosterone; 3 hours
T1 construct: expressed in transfected cells; host or cells: V79 cells (clone V79-hCYP11B2-CLE9)
T1 sequence (P19099 25-503): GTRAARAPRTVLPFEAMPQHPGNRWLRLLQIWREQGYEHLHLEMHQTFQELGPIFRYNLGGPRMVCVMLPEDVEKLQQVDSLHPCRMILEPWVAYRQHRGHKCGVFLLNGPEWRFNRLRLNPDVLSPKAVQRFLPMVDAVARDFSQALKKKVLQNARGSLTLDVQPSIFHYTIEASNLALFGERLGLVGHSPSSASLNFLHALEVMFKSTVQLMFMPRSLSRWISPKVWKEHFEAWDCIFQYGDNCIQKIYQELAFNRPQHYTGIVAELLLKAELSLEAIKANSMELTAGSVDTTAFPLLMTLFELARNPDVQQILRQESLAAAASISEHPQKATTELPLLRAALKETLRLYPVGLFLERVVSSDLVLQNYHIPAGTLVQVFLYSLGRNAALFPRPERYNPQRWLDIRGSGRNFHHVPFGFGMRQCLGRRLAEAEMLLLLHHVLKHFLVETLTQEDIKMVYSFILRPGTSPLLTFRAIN
Method: (§1) Methods for V79-Human-CYP11B2 and V79-Human-CYP11B1 Assays: V79 cell lines stably expressing the either the human CYP11B2 or the human CYP11B1 enzyme were generated using a standard transfection protocol. V79 cells were transfected with plasmids pTriEx3-Hygro-hCyp11B2 or pTriEx3-Hygro-hCyp11B1 using Lipofectamine2000 reagent. V79 cells that stably express the human CYP11B2 or human CYP11B1 enzyme were selected for and maintained in DMEM supplemented with 10% FBS and 400 μg/mL hygromycin for ˜2 weeks. Single cell clones were generated by […] in DMEM supplemented with 10% FBS and 400 μg/mL hygromycin until single colonies were obtained. Clones V79-hCYP11B2-CLE9 and V79-hCYP11B1-8C7, were determined to produce the most aldosterone and cortisol, respectively, and were selected for inhibitor screening. For testing of inhibitors, cells were harvested at 80% confluency with 0.5% Trypsan-EDTA, washed once in PBS, and reconstituted in DMEM 0.1% BSA media at a cell concentration of 400,000 cells/mL. 25 μl of cells were added to a 384 well tissue culture treated plate and mixed with 0.25 μl of inhibitor or DMSO (1% final DMSO concentration) for 1 hour at 37° C., 5% CO2. After pre-incubation with inhibitor, the reaction was initiated by adding 5 μl of substrate (final concentration of 125 nM 11-deoxycorticosterone for the CYP11B2 assay or 250 nM 11-deoxycortisol for the CYP11B1 assay). The reaction was carried out for 3 hours at 37° C., 5% CO2 and was stopped by harvesting the supernatants. The amount of product in the supernatant (aldosterone for CYP11B2 assay and cortisol for the CYP11B1 assay) was measured using HTRF-based assay kit (Aldosterone HTRF-CisBio#64ALDPEB, Cortisol HTRF-CisBio #63IDC002-CORT). IC50's for the inhibitor were determined by plotting the amount of product formed against the concentration of inhibitor using sigmoidal dose-response curve (variable slope) fit in GraphPad.

human CYP11B1 = target: T2, human CYP11B1 (Homo sapiens, UniProt P15538); assay: V79-Human-CYP11B1 cell assay (cortisol formation, HTRF); format: cell-based; conditions: V79 cells stably expressing human CYP11B1; substrate 250 nM 11-deoxycortisol; 3 hours
T2 construct: expressed in transfected cells; host or cells: V79 cells (clone V79-hCYP11B1-8C7)
T2 sequence (P15538 25-503): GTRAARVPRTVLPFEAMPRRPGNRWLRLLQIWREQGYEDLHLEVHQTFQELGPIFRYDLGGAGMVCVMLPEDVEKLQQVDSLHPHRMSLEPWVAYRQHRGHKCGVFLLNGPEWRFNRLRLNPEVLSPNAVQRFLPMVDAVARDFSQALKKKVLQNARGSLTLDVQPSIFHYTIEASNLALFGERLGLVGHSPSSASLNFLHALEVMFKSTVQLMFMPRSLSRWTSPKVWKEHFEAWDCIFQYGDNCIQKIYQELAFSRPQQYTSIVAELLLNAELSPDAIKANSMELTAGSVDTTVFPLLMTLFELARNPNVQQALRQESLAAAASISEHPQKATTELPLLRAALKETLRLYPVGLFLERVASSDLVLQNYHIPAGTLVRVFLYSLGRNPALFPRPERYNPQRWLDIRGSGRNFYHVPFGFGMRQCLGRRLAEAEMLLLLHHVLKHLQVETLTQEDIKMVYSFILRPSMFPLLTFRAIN
Method: as §1, with “Clones V79-hCYP11B2-CLE9 and V79-hCYP11B1-8C7, were determined to produce the most aldosterone and cortisol, respectively, and were selected for inhibitor screening.” left out, “After pre-incubation with inhibitor, the reaction was initiated by adding 5 μl of substrate (final concentration of 125 nM 11-deoxycorticosterone for the CYP11B2 assay or 250 nM 11-deoxycortisol for the CYP11B1 assay).” left out

Row | SMILES | IC50 (human CYP11B2) [nM] | IC50 (human CYP11B1) [nM]
1 | COc1cncc(-c2nc3ccc(C#N)cc3n2C2CC2)c1 [Example 76, 1-cyclopropyl-2-(5-methoxypyridin-3-yl)-1H-benzimidazole-6-carbonitrile] | 0.422 | 1750
2 | Cn1c(-c2cnccc2C(F)(F)F)nc2cc(F)c(Cl)cc21 [Example 335, 6-chloro-5-fluoro-1-methyl-2-[4-(trifluoromethyl)pyridin-3-yl]-1H-benzimidazole] | 2.85 | 563
